PMC12104674 (Frontiers in Pharmacology, 2025)
Read-outs that look alike come from different tables or passages of the source. Values belong to the compound of their own block, whether it stands above or below them.

What was measured:
[1] = tested on: CYP3A4; parameters: method as in Marechal et al., 2006; conditions: CYP3A4 inhibition; ref Marechal et al., 2006; cited from earlier work
[2] = cited from earlier work; for bioavailability: oral loperamide, significant first-pass effect, ref IMODIUM package insert (2016)
[3] = tested on: CYP3A4; assay: Calculated R1 / R1,gut for reversible CYP3A4 inhibition by loperamide
[4] = tested on: untreated HER2-positive metastatic breast cancer; conditions: cited from earlier work
[5] = tested on: albumin; conditions: of loperamide available in blood; cited from earlier work
[6] = Pyrotinib plasma pharmacokinetics with/without montmorillonite powder (Group A), LC-MS/MS, NCA; format: in vivo, healthy volunteers; conditions: for Tmax: median (minimum, maximum); for Vd/F: read-out: Vz/F
Experimental: (§1) On day 1, all subjects received a single oral dose of 400 mg pyrotinib after breakfast. […] Subjects in Group B received a single oral dose of 400 mg pyrotinib and 4 mg loperamide after breakfast on day 9, followed by additional doses of 2 mg loperamide at 2 h and 4 h post-administration.
(§2) Blood samples were collected at baseline (within 30 min prior to drug administration) and at 1, 2, 3, 4, 5, 6, 7, 8, 10, 12, 24, 48, 72, and 96 h following pyrotinib administration on days 1 and 9 to measure the concentration of pyrotinib in the plasma. After completion of the study on day 13, subjects underwent a final examination and were subsequently discharged. A safety follow-up was conducted between days 16 and 19.
(§3) The analysis of plasma samples for pyrotinib was based on a validated and sensitive liquid chromatography-tandem mass spectrometry (LC-MS/MS) method with high specificity. The plasma samples were stored at −70°C and analyzed within a stability period of 176 days. The calibration range for the standard curve was between 1.00 and 500 ng/mL, and the regression equation used linear fitting with a weighting factor of W = 1/X^2 (bioanalysis method validation report, data on file). In each batch of analysis, the number of quality control (QC) samples accounted for more than 5% of the unknown samples in that batch. […] Representative chromatograms of pyrotinib at the LLOQ (lower limit of quantification) and in a plasma sample can be found in the Supplementary Material.
(§4) The individual pharmacokinetic parameters of pyrotinib would be calculated using non-compartmental analysis (NCA) and summarized by groups and combination status with descriptive statistics. To estimate the difference in the least-square means between the combination treatment and pyrotinib alone, a mixed-effects model was used to analyze the natural log-transformed pharmacokinetic parameters of pyrotinib (including AUC0- ∞ , AUC0-t, and Cmax) for each group. The model included treatment as a fixed effect and subject as a random effect. Results were exponentiated to obtain geometric least-squares means, geometric mean ratios, and corresponding 90% confidence intervals (CIs) on the original scale. […] To account for a 10% dropout rate, 18 subjects were planned for each of Groups A and B, resulting in a total of 36 subjects.

[7] = Safety analysis (TEAEs), Group B; format: in vivo, healthy volunteers
Experimental: (§5) As summarized in Figure 1, the participants were divided into two groups: […] On day 1, all subjects received a single oral dose of 400 mg pyrotinib after breakfast. […] Subjects were instructed to have a light meal the night before the administration of the drug and to fast for 10 h overnight. Safety assessments included adverse events (AEs), physical examinations, vital signs, 12-lead ECGs, and clinical laboratory tests (hematology, serum chemistry, and urinalysis).

[8] = Safety analysis (TEAEs), Group A; format: in vivo, healthy volunteers
Experimental: as §5

[9] = parameters: method as in data on file; conditions: healthy volunteers, ref data on file, cited from earlier work
[10] = Pyrotinib plasma pharmacokinetics with/without loperamide (Group B), LC-MS/MS, NCA; format: in vivo, healthy volunteers
Experimental: as §1, §2, §3, §4

[11] = combination with montmorillonite powder/pyrotinib alone
[12] = human, plasma, oral, Group A, pyrotinib alone, 400 mg, day 1, geometric mean (geometric CV)
[13] = with montmorillonite powder 2 h after pyrotinib vs. pyrotinib alone
[14] = combination with loperamide/pyrotinib alone
[15] = with loperamide vs. pyrotinib alone

SMILES: CN(C)C(=O)C(CCN1CCC(O)(c2ccc(Cl)cc2)CC1)(c1ccccc1)c1ccccc1 [loperamide]
bioavailability [2]: 0.3%
bioavailability ([2]; listed as Loperamide): about 0.3%
calculated R1 for reversible inhibition ([3]; CYP3A4): less than 1.0001
calculated R1,gut ([3]; based on molecular weight of 477 Dalton, guidance cut off 11): 1,342.7
median PFS by antidiarrheal used in diarrhea management ([4]; ad hoc analysis, ref data on file): 19.5 months
fraction bound to albumin [5]: 95%

CL/F ([6]; Group A, 400 mg pyrotinib then 3 g montmorillonite powder 2 h later, day 9, geometric mean (geometric CV)): 315 L/h
CL/F ([6]; Group A, pyrotinib alone, 400 mg, day 1, geometric mean (geometric CV)): 213 L/h
CL/F ([6]; Group A, pyrotinib alone, 400 mg, day 1, geometric mean (geometric CV), listed as Pyrtonib): 213 (40.5) L/h
geometric mean ratio (90% CI), AUC0-t [6, 11]: 0.669 (0.601, 0.745)
geometric mean ratio (90% CI), AUC0-∞ [6, 11]: 0.676 (0.610, 0.749)
geometric mean ratio (90% CI), Cmax [6, 11]: 0.733 (0.670, 0.803)
half-life ([6]; human, plasma, oral): 16.3 h
AUC(0-inf) ([6]; human, plasma, oral, 400 mg, Group A, pyrotinib alone, 400 mg, day 1, geometric mean (geometric CV), read-out: AUC0-∞): 1880 ng·h/mL
Tmax ([6]; human, plasma, oral, 400 mg, Group A, pyrotinib alone, 400 mg, day 1): 5 h
AUC(0-t) ([6]; human, plasma, oral, 400 mg, Group A, pyrotinib alone, mixed-effects model, read-out: Geometric least-square mean AUC0-t): 1830 ng·h/mL
AUC(0-inf) ([6]; human, plasma, oral, 400 mg, Group A, pyrotinib alone, mixed-effects model, read-out: Geometric least-square mean AUC0-∞): 1880 ng·h/mL
AUC(0-inf) ([6]; human, plasma, oral, Group A, 400 mg pyrotinib then 3 g montmorillonite powder 2 h later, day 9, geometric mean (geometric CV), read-out: AUC0-∞): 1270 ng·h/mL
Tmax ([6]; human, plasma, oral, Group A, 400 mg pyrotinib then 3 g montmorillonite powder 2 h later, day 9): 3.51 h
decrease in Tmax ([6]; human, plasma, oral, with montmorillonite powder vs. pyrotinib alone, read-out: time to maximum concentration earlier by): 1.5 h
Cmax [6, 12]: 105 ng/mL
Vd/F [6, 12]: 4580 L
half-life ([6]; human, plasma, oral, Group A, pyrotinib alone, 400 mg, day 1, mean (SD)): 15.5 h
Vd/F ([6]; human, plasma, oral): 7120 L
AUC(0-t) ([6]; human, Group A, pyrotinib alone, single oral 400 mg after breakfast, day 1, plasma pyrotinib, geometric mean (geometric CV), read-out: AUC0-t): 1840 ng·h/mL
reduction in exposure of pyrotinib ([6]; montmorillonite powder at 2-h interval): 33%
decrease in AUC0-t of pyrotinib [6, 13]: 33.1%
decrease in AUC0-∞ of pyrotinib [6, 13]: 32.4%
decrease in Cmax of pyrotinib [6, 13]: 26.7%
change in t1/2 of pyrotinib ([6]; with montmorillonite powder vs. pyrotinib alone): no significant change
CL/F ([10]; Group B, 400 mg pyrotinib + loperamide 4+2+2 mg, day 9, geometric mean (geometric CV)): 160 L/h
CL/F ([10]; Group B, pyrotinib alone, 400 mg, day 1, geometric mean (geometric CV)): 189 L/h
CL/F ([10]; Group B, pyrotinib alone, 400 mg, day 1, geometric mean (geometric CV), listed as Pyrtonib): 189 (26.7) L/h
geometric mean ratio (90% CI), AUC0-t [10, 14]: 1.18 (1.08, 1.28)
geometric mean ratio (90% CI), AUC0-∞ [10, 14]: 1.19 (1.09, 1.29)
geometric mean ratio (90% CI), Cmax [10, 14]: 0.946 (0.867, 1.03)
AUC(0-t) ([10]; human, oral, Group B, 400 mg pyrotinib + 4 mg loperamide, then 2 mg loperamide at 2 and 4 h, day 9, plasma pyrotinib, geometric mean (geometric CV), read-out: AUC0-t): 2430 ng·h/mL
AUC(0-inf) ([10]; human, plasma, oral, 400 mg, Group B, pyrotinib alone, 400 mg, day 1, geometric mean (geometric CV), read-out: AUC0-∞): 2110 ng·h/mL
AUC(0-t) ([10]; human, plasma, oral, 400 mg, Group B, pyrotinib alone, mixed-effects model, read-out: Geometric least-square mean AUC0-t): 2060 ng·h/mL
AUC(0-inf) ([10]; human, plasma, oral, 400 mg, Group B, pyrotinib alone, mixed-effects model, read-out: Geometric least-square mean AUC0-∞): 2110 ng·h/mL
AUC(0-inf) ([10]; human, plasma, oral, Group B, 400 mg pyrotinib + loperamide 4+2+2 mg, day 9, geometric mean (geometric CV), read-out: AUC0-∞): 2500 ng·h/mL
Cmax ([10]; human, plasma, oral, Group B, pyrotinib alone, 400 mg, day 1, geometric mean (geometric CV)): 124 ng/mL
Vd/F ([10]; human, plasma, oral, Group B, pyrotinib alone, 400 mg, day 1, geometric mean (geometric CV), read-out: Vz/F): 4520 L
half-life ([10]; human, plasma, oral, Group B, pyrotinib alone, 400 mg, day 1, mean (SD)): 17.3 h
Tmax ([10]; human, plasma, oral, Group B, pyrotinib alone, 400 mg, day 1, median (minimum, maximum)): 4.98 h
AUC(0-t) ([10]; human, Group B, pyrotinib alone, single oral 400 mg after breakfast, day 1, plasma pyrotinib, geometric mean (geometric CV), read-out: AUC0-t): 2060 ng·h/mL
change in median Tmax of pyrotinib [10, 15]: no significant change
decrease in Cmax of pyrotinib [10, 15]: approximately 5.4%
increase in AUC0-t of pyrotinib [10, 15]: approximately 18%
increase in AUC0-∞ of pyrotinib [10, 15]: ~19%
SMILES: CCOc1cc2ncc(C#N)c(Nc3ccc(OCc4ccccn4)c(Cl)c3)c2cc1NC(=O)/C=C/[C@H]1CCCN1C [Pyrotinib]
incidence of hypertriglyceridemia ([7]; Group B): 22.2%
incidence of hyperuricemia ([7]; Group B): 11.1%
incidence of oral ulcer ([7]; Group B): 11.1%
incidence of rash ([7]; Group B): 11.1%
serious adverse events ([7]; Group B): No serious adverse events
number of treatment-emergent adverse events (TEAEs) ([7]; Group B (N = 18)): 18
subjects who experienced TEAEs ([7]; Group B (N = 18), pyrotinib 400 mg day 1 and pyrotinib + loperamide day 9): 12 subjects
incidence of each other TEAE ([7]; Group B, nausea, abdominal distension, PR interval prolongation on ECG, increased heart rate, increased total bile acid, headache, dizziness (each)): 5.6%
incidence of hypertriglyceridemia ([8]; Group A): 11.1%
serious adverse events ([8]; Group A): No serious adverse events
number of treatment-emergent adverse events (TEAEs) ([8]; Group A (N = 18)): 11
subjects who experienced TEAEs ([8]; Group A (N = 18), pyrotinib 400 mg day 1 and pyrotinib + montmorillonite powder day 9): eight
severity of TEAEs ([8]; Group A, all TEAEs): mild (Grade 1)
incidence of each other TEAE ([8]; Group A, hypercholesterolemia, nausea, abdominal distension, ALT elevation, AST elevation, bradycardia, elevated blood bilirubin, upper respiratory tract infection, orthostatic hypotension (each)): 5.6%
time to peak concentration ([9]; oral 400 mg pyrotinib): approximately 5 h
elimination half-life [9]: approximately 18 h
progression-free survival (PFS) ([4]; pyrotinib combined with trastuzumab and docetaxel, ref Ma et al., 2023): 24.3 months
incidence of diarrhea grade 3 or higher ([4]; pyrotinib group (138/297), ref Ma et al., 2023): 46%
incidence of diarrhea ([4]; pyrotinib group (293/297), ref Ma et al., 2023): 99%
hazard ratio (PFS) ([4]; pyrotinib vs. placebo, each with trastuzumab and docetaxel, ref Ma et al., 2023): 0.41
duration of diarrhea ([4]; usually, ref Ma et al., 2023): 2 to 3 days
